From PMC13205134, “Design, synthesis, and biological properties exhibited by 1,2,3-triazole based Grp94-selective inhibitors” (European journal of medicinal chemistry, 2025)
Where “and” joins values, the source holds several entries; their conditions need not be identical. Equal values may be shown once. Entries after “also recorded” stand apart in the source; their conditions may differ.

Columns and labels:
[1] = system: Hsp70; assay: Western blot of Hsp70 in MDA-MB-231 cells; assay type: cell-based; details: 24 h
Protocol: (§1) MDA-MB-231 cells were grown in a water jacketed incubator at 37 °C with 5 % CO2. Cells were cultured in DMEM (Corning) media supplemented with 10 % heat-inactivated fetal bovine serum (FBS, Gibco, 10438-026) and 1 % Penicillin-Streptomycin (VWR, K952-100 mL). Cells were seeded in clear, flat bottom 6-well plates with each well containing 500,000 cells and grown to 80 % confluency. The medium was replaced with fresh DMEM that contains compounds of interest at the indicated concentrations or vehicle control, and cells were incubated for 24 h. Following treatment, MDA-MB-231 cells were then lysed in RIPA buffer supplemented with protease and phosphatase inhibitors. Protein concentration in lysates were determined by BCA assay (Thermo). Equal amounts of protein were separated by SDS-PAGE on 10 % polyacrylamide gels and […] onto nitrocellulose membranes. Transfer efficiency and total protein loading were confirmed by Ponceau staining. Membranes were blocked with 6 % nonfat dry milk and probed with primary antibodies against GAPDH (Cell Signaling, 14C10), Hsp70 (Cell Signaling, C92F3A), Akt, and Integrin α2 (Cell Signaling, D8V7H) each diluted 1:1000. Secondary antibodies were also used at 1:1000 (Southern Biotech), immunoblots were developed using ECL substrate (Amersham, 45-000-999) and visualized on a ChemiDoc Imaging System (BioRad).

[2] = target: Hsp90α (Homo sapiens, UniProt P07900); assay: Competitive binding fluorescence polarization (FP) assay, Hsp90α; details: FITC-GDA tracer, mean of triplicates ± SD, read-out: Apparent Kd Hsp90α
Protocol: The Fluorescence Polarization Assay (FP) was performed in 96-well flat-bottom plates (Santa Cruz Biotechnology) with a final volume of 100 μL per well. The assay buffer consisted of 20 mM HEPES, 50 mM KCl, 10.5 mM MgCl2, 20 mM Na2MoO4, 0.01 % NP-40 detergent (NP-40), and pH 7.3 with fresh 2 mM dithiothreitol (DTT) and 0.1 mg/mL bovine γ-globulin (BGG). Each well contained 10 nM of Hsp90α or Grp94 (Enzo Biochem Inc.) and 6 nM of FITC-GDA (fluorescent tracer, stock in DMSO). Compounds were tested in triplicate at final concentrations of 100 μM, 10 μM, 1 μM, 0.1 μM and 0.01 μM with each final concentration containing 1 % DMSO. Each plate included control wells containing: (i) buffer only (background polarization), (ii) protein plus tracer (maximum polarization control), and (iii) tracer only (minimum polarization control). Plates were incubated on a rocker at 4 °C for 24 h. Fluorescence polarization (mP units) was measured at 37 °C using excitation and emission wavelengths of 485 and 528 nm, respectively. Apparent Kd values were determined via calculations from the polarization data obtained at which the tracer was displaced by 50 % by the compounds of interest.
[I50] = concentration of free inhibitor at 50% inhibition, [L50] = concentration of free fluorescence labeled ligand molecule at 50% inhibition, [P0] = concentration of free protein at 0% inhibition, K = dissociation constant of the protein−ligand complex.^4

[3] = system: Akt; assay: Western blot of Akt in MDA-MB-231 cells; assay type: cell-based; details: 24 h
Protocol: as §1

[4] = system: Grp94; assay: Competitive binding fluorescence polarization (FP) assay, Grp94; details: for Polarization Read 1 / Polarization Read 2 / Polarization Read 3: replicate wells, protein not given
Protocol: The Fluorescence Polarization Assay (FP) was performed in 96-well flat-bottom plates (Santa Cruz Biotechnology) with a final volume of 100 μL per well. […] Each well contained 10 nM of Hsp90α or Grp94 (Enzo Biochem Inc.) and 6 nM of FITC-GDA (fluorescent tracer, stock in DMSO). Compounds were tested in triplicate at final concentrations of 100 μM, 10 μM, 1 μM, 0.1 μM and 0.01 μM with each final concentration containing 1 % DMSO. Each plate included control wells containing: (i) buffer only (background polarization), (ii) protein plus tracer (maximum polarization control), and (iii) tracer only (minimum polarization control). Plates were incubated on a rocker at 4 °C for 24 h.

[5] = system: Y437H myocilin; assay: Cellular assay for mutant myocilin in dox-inducible trabecular meshwork (TM-1) cells; assay type: cell-based, human
Protocol: (§2) Immortalized human trabecular meshwork (TM-1) cells stably transduced with WT or Y437H myocilin (50 MOI) were grown in low-glucose (1 g/L) Dulbecco’s modified Eagle medium with glutamine (DMEM, Gibco) supplemented with 10 % FBS (Hyclone), 1–2 % PS (Gibco) at 37 °C, and 200 μg/mL hygromycin (Corning), TM-1 cells were seeded in 6 well plates at equivalent cell counts/replicate. The following day, myocilin expression was induced by treating the cells with 2 μg/mL doxycycline (dox, Thermo-Scientific) in serum-free media. After 48 h, media was replaced with serum-free media containing 2 μg/mL dox to induce myocilin expression and 47 at the designated concentration for an additional 24 h.
(§3) Cells were lysed using lysis buffer (100 mM Tris-HCl pH 7.4, 3 mM EGTA, 5 mM MgCl2, 0.5 % Triton X 100) supplemented with 0.6 mM phenylmethylsulfonyl fluoride, and a 1:100 v/v protease inhibitor cocktail containing complete EDTA-free protease inhibitor (Roche) and 1 % (v/v) phosphatase inhibitor cocktails II and III (Sigma-Aldrich). Cells lysed by rocking in lysis buffer for ~2 h at 4 °C. Detergent-soluble and detergent insoluble fractions were separated by centrifugation. Protein concentration of the detergent-soluble fractions was determined by BCA assay (Pierce).
The detergent-soluble samples were prepared in equal protein concentration in 5X Laemmli buffer containing 5–10 % (v/v) β-mercaptoethanol. The samples were heated at 95 °C for 5 min and loaded on 12 % Tris-glycine gels. The gels were then transferred to methanol-activated PVDF membranes using the Trans-blot Turbo transfer system (Bio-Rad). […] Quantification of protein bands on Western blots was performed using ImageLab (Bio-Rad). Measurements of band density were normalized to actin loading control within each experiment, and the statistical significance was determined with one-way ANOVA with GraphPad Prism.

[6] = system: wild-type myocilin; assay: Cellular assay for wild-type myocilin in dox-inducible trabecular meshwork (TM-1) cells; assay type: cell-based, human; details: higher dose (30 μM), 24 h, Western blot
Protocol: as §2
as §3, with “Detergent-soluble and detergent insoluble fractions were separated by centrifugation.” left out
The detergent-soluble samples were prepared in equal protein concentration in 5X Laemmli buffer containing 5–10 % (v/v) β-mercaptoethanol. […] Quantification of protein bands on Western blots was performed using ImageLab (Bio-Rad). […]

[7] = system: integrin α2; assay: Western blot of integrin α2 in MDA-MB-231 cells; assay type: cell-based; details: 5 μM, 24 h
Protocol: as §1

Kd [2]: 9.17 ± 0.86 µM
Polarization Read 1 ([4]; 0.01 µM): 298 and 289 and 285
Polarization Read 2 ([4]; 0.01 µM): 278 and 288 and 270
Polarization Read 3 ([4]; 0.01 µM): 275 and 284 and 279
Polarization Read 1 ([4]; 0.1 µM): 247 and 250 and 234
Polarization Read 2 ([4]; 0.1 µM): 234 and 231 and 237
Polarization Read 3 ([4]; 0.1 µM): 220 (2×) and 210
Polarization Read 1 ([4]; 1 µM): 189 and 179 and 182
Polarization Read 2 ([4]; 1 µM): 178 and 177 and 180
Polarization Read 3 ([4]; 1 µM): 185 (2×) and 186
Polarization Read 1 ([4]; 10 µM): 170 and 191 and 174
Polarization Read 2 ([4]; 10 µM): 172 and 178 and 176
Polarization Read 3 ([4]; 10 µM): 169 and 185 and 177
improvement in affinity compared to BnIm ([4]; Grp94 affinity, relative to first generation BnIm): 15 fold
improvement in affinity compared to BnPh ([4]; Grp94 affinity, relative to second generation BnPh): 8 fold
increase in affinity on extension of ethyl to propyl group ([4]; Grp94 affinity, relative to the 2-ethyl analog): 10 fold
Fold selective for Grp94 ([4]; selectivity over Hsp90α, n.s. = non-selective): 121 fold
SMILES: CCCc1ccccc1Cc1cnnn1CCc1c(Cl)c(O)cc(O)c1C(=O)OC [Compound 47, methyl 3-chloro-4,6-dihydroxy-2-(2-(5-(2-propylbenzyl)-1H-1,2,3-triazol-1-yl)ethyl)benzoate]
Hsp70 expression [1]: does not induce Hsp70 expression
effect on Akt (cytosolic Hsp90 client protein) [3]: did not affect Akt
Y437H-mutant myocilin levels ([5]; 3 μM, 24 h, TM-1 cells, Western blot): statistically significant reduction
reduction of levels of intracellular myocilin ([5]; 30 μM, 24 h, TM-1 cells Y437H myocilin, Western blot): ≥ 50%
intracellular accumulation of mutant myocilin ([5]; human trabecular meshwork cells, concentration not given): reduced the intracellular accumulation of mutant myocilin
wild-type myocilin expression [6]: statistically significant decrease
levels of Integrin α2 [7]: induced the degradation of integrin α2; also recorded: reduced the levels of Integrin α2
